# Source: US9101613B2, “Methods for treating neurological disease” (Neurim Pharmaceuticals (1991) Ltd., priority 2006, dated 2015)
# Like-named read-outs stand apart in the source and are kept apart here.
# Experiments:
# CD1 mice [1] = experiment: Potentiation of hexobarbital-Na sleep time in mice; type: in vivo; conditions: for effect on hexobarbital-Na narcosis time: 100 mg/kg i.p.; for Changes (%) vs. Vehicle (sleep time) / Mean Sleep Time-Treatment (min) ± SE: 100 mg/kg i.p. 15 min before 50 mg/kg hexobarbital-Na i.v.; for Mean Sleep Time-Treatment (min) ± SE: loss to recovery of righting reflex
# Description: CD1 mice were divided randomly into groups of seven mice each. The mice in each group were administered intraperitoneally a dose of one of the following: 100 mg/kg of one of test substances O-[2-(5-methoxy-indol-3-yl)-ethyl]-comenic ester, N-[2-(5-methoxyindol-3-yl)-ethyl]-commenamide, N-[2-(5-methoxy-indol-3-yl)-ethyl]-coumalylamide, N-[2-(5-methoxy-indol-3-yl)-ethyl]-chelidonamide, N-[2-(5-methoxy-indol-3-yl)-ethyl]-comanilamide or N-[2-(5-methoxy-indol-3-yl)-ethyl]-2-methoxy-commenamide in saline (0.1 ml/10 g body weight), or saline alone. Fifteen minutes later the mice received a dose of 50 mg/kg of hexobarbital-Na intravenously. Sleep time was measured in each animal as the time from loss to recovery of the righting reflex.
# MT-1 receptor = target: T1, MT-1 receptor (Homo sapiens, UniProt P48039); experiment: 125I-melatonin binding in membranes of CHP-K1 cells, MT-1; conditions: for inhibition at 10 µM: read-out: MT-1 receptor binding % inhibition by 10 μM
# T1 construct: expressed in transfected cells; host or cells: CHP-K1 (Chinese hamster ovary) cells (so in the source)
# T1 sequence (P48039 whole entry): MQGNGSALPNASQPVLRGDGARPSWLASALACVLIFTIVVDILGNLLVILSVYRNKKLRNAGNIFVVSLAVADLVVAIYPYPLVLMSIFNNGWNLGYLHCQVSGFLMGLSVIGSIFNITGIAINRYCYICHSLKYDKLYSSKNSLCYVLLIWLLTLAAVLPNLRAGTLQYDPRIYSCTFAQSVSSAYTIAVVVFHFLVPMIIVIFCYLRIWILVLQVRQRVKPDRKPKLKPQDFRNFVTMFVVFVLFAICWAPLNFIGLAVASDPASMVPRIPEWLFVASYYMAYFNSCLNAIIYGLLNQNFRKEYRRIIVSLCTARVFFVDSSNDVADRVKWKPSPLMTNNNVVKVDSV
# Description: (§1) Aliquots of suspended membranes of human recombinant CHP-K1 (Chinese hamster ovary) cells stably expressing human melatonin-1 or melatonin-2 (MT-1 or MT-2) receptors or of hamster brain (MT-3) were incubated at 25° C. with 0.05 nM ^125I-melatonin in buffer (25 mM HEPES, pH 7.4, 5 mM MgCl2, 1 mM CaCl2, 0.5% BSA) or with 0.1 nM for MT-3 alone or in the presence of 1 nM, 10 nM, 0.1 μM, 1 μM and 10 μM of test substances N-[2-(5-methoxy-indol-3-yl)-ethyl]-commenamide, N-[2-(5-methoxy-indol-3-yl)-ethyl]-comanilamide, N-[2-(5-methoxy-indol-3-yl)-ethyl]-coumalylamide, N-[2-(5-methoxy-indol-3-yl)-ethyl]-2-methoxy-commenamide, N-[2-(5-methoxy-indol-3-yl)-ethyl]-chelidonamide, O-[2-(5-methoxy-indol-3-yl)-ethyl]-comenic ester, N-[2-(5-methoxy-indol-3-yl)-ethyl]-2-Pyrone-6-carboxamide and N-[2-(2-bromo-5-methoxy-indol-3-yl)-ethyl]-coumalylamide for 3 hours for MT-1, 4 hours for MT-2 and 30 min for MT-3. The binding reaction was terminated and the membranes were washed with 4 ml of ice-cold HEPES buffer by vacuum filtration. Membranes were then collected, and the filters containing the bound ^125I-melatonin were assayed for the amount of radioactivity in a […]. Non-specific binding was evaluated using a reaction with 1 μM 6-chloromelatonin (MT-1 and MT-2) or 30 μM melatonin (MT-3).
# MT-2 receptor = target: T2, MT-2 receptor (Homo sapiens, UniProt P49286); experiment: 125I-melatonin binding in membranes of CHP-K1 cells, MT-2; conditions: for inhibition at 10 µM: read-out: MT-2 receptor binding % inhibition by 10 μM
# T2 construct: expressed in transfected cells; host or cells: CHP-K1 (Chinese hamster ovary) cells (so in the source)
# T2 sequence (P49286 1-362): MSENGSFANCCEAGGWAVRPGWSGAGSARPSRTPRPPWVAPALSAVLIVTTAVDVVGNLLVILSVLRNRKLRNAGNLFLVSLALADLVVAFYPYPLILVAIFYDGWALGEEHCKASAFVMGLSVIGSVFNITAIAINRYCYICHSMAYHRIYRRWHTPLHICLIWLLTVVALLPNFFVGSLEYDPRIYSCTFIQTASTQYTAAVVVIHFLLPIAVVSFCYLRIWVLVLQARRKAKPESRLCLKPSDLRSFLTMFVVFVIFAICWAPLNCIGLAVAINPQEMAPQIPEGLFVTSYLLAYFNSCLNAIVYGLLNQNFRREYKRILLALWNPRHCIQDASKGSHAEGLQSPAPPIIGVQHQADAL
# Description: as §1
# MT-3 receptor = target: T3, MT-3 receptor (Mesocricetus auratus, UniProt A0ABM2YAB8); experiment: 125I-melatonin binding in hamster brain membranes, MT-3; conditions: for inhibition at 10 µM: read-out: MT-3 receptor binding % inhibition by 10 μM
# T3 construct: from tissue; host or cells: hamster brain membranes
# T3 sequence (A0ABM2YAB8 1-231): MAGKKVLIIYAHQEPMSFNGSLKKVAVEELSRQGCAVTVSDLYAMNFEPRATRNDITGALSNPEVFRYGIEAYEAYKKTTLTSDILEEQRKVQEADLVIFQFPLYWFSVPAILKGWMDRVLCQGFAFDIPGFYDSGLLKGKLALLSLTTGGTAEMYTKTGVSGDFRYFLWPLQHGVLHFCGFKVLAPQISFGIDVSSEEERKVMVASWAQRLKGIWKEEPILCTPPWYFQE
# Description: as §1
# CD1 mice [2] = experiment: Motimeter assay (motor activity and rearing); type: in vivo; conditions: 100 mg/kg i.p.; for effect on motor activity and rearing: 30-35 min and 60-65 min after treatment
# Description: Mice were starved for 16 hrs before treatment. Male CD1 mice, weighing 25-30 g, were treated intraperitoneally with melatonin, N-[2-(5-methoxy-indol-3-yl)-ethyl]-comanilamide or N-[2-(5-methoxy-indol-3-yl)-ethyl]-commenamide in a dose of 100 mg/kg. The horizontal (i.e. locomotion) and vertical (i.e. rearing) movements were measured for 5 minutes two times, 30 and 60 min after treatment. Eight mice/group were used. The 4-channel activity meter is a square-shaped frame containing transparent infra-red permeable acrylic cages. The frames feature two pairs of light-beam strips for measuring horizontal movements, and two pairs for measuring rearing. Each strip is equipped with 16 infra-red sensors.
# [3] = 0.05 nM 125I-melatonin, 25° C., 3 hours, read-out: MT-1 receptor binding IC50
# [4] = 0.05 nM 125I-melatonin, 25° C., 3 hours, read-out: MT-1 receptor binding KI
# [5] = 0.05 nM 125I-melatonin, 25° C., 4 hours, read-out: MT-2 receptor binding IC50
# [6] = 0.05 nM 125I-melatonin, 25° C., 4 hours, read-out: MT-2 receptor binding KI
# [7] = 0.1 nM 125I-melatonin, 30 min, read-out: MT-3 receptor binding IC50
# [8] = 0.1 nM 125I-melatonin, 30 min, read-out: MT-3 receptor binding KI
Compound,effect on hexobarbital-Na narcosis time (CD1 mice [1]),Changes (%) vs. Vehicle (sleep time) (CD1 mice [1]),Mean Sleep Time-Treatment (min) ± SE (CD1 mice [1]) [min],affinity to MT-1 (MT-1 receptor),affinity to MT-2 (MT-2 receptor),affinity to MT-3 (MT-3 receptor),effect on motor activity and rearing (CD1 mice [2]),IC50 (MT-1 receptor; [3]) [nM],Ki (MT-1 receptor; [4]) [nM],"inhibition at 10 µM (MT-1 receptor; 10 μM, 0.05 nM 125I-melatonin) [%]",IC50 (MT-2 receptor; [5]) [nM],Ki (MT-2 receptor; [6]) [nM],"inhibition at 10 µM (MT-2 receptor; 10 μM, 0.05 nM 125I-melatonin) [%]",IC50 (MT-3 receptor; [7]) [nM],Ki (MT-3 receptor; [8]) [nM],"inhibition at 10 µM (MT-3 receptor; 10 μM, 0.1 nM 125I-melatonin) [%]",other results
COc1ccc2[nH]cc(CCNC(=O)c3cc(=O)c(O)co3)c2c1 [N-[2-(5-methoxy-indol-3-yl)-ethyl]-commenamide],significantly increased the hexobarbital-Na narcosis time,+88%,17.13 ± 8.06,high affinity,high affinity,high affinity,did not change significantly the motor activity and rearing,–,–,–,–,–,–,–,–,–,IC50 (MT-1 receptor): 24 nM; Ki (MT-1 receptor): 13 nM; inhibition at 10 µM (MT-1 receptor): 99%; IC50 (MT-2 receptor): 13 nM; Ki (MT-2 receptor): 7 nM; inhibition at 10 µM (MT-2 receptor): 101%; IC50 (MT-3 receptor): 800 nM; Ki (MT-3 receptor): 780 nM; inhibition at 10 µM (MT-3 receptor): 98%
COc1ccc2[nH]cc(CCNC(=O)c3cc(=O)c(OC)co3)c2c1 [N-[2-(5-methoxy-indol-3-yl)-ethyl]-2-methoxy-commenamide],–,−21%,7.70 ± 1.24,–,–,–,–,2130,1110,76,826,429,93,230,220,99,–
COc1ccc2[nH]cc(CCNC(=O)c3cc(=O)cc(C(=O)O)o3)c2c1 [N-[2-5-methoxy-indol-3-yl)-ethyl]-chelidonamide],moderately increased the hexobarbital-Na narcosis time,+54%,12.37 ± 1.85,–,–,–,–,2470,1280,80,1760,910,89,2200,2200,86,–
COc1ccc2[nH]cc(CCNC(=O)c3cc(=O)cco3)c2c1 [N-[2-(5-methoxy-indol-3-yl)-ethyl]-comanilamide],moderately increased the hexobarbital-Na narcosis time,+49%,17.52 ± 3.07,high affinity,high affinity,high affinity,did not change significantly the motor activity and rearing,42,22,98,65,34,100,310,300,100,–
COc1ccc2[nH]cc(CCNC(=O)c3ccc(=O)oc3)c2c1 [N-[2-(5-methoxy-indol-3-yl)-ethyl]-coumalylamide],significantly increased the hexobarbital-Na narcosis time,+194%,23.58 ± 3.19,–,–,–,significantly decreased both the motor activity and rearing,750,390,89,370,190,95,980,960,95,"motor activity (horizontal movement) changes (%) 30 min (CD1 mice [2]; 30 min, vs vehicle): −63.1%; motor activity (horizontal movement) 30 min Means ± SE (CD1 mice [2]; 30 min after treatment, 5 min measurement): 158.8 ± 37.0; motor activity (horizontal movement) changes (%) 60 min (CD1 mice [2]; 60 min, vs vehicle): −80.3%; motor activity (horizontal movement) 60 min Means ± SE (CD1 mice [2]; 60 min after treatment, 5 min measurement): 62.3 ± 16.6"
